Data taken from PMC12297304, “Molecular networking derived from untargeted LC-MS/MS analysis to discover inhibitors of RANKL-induced osteoclastogenesis from Egyptian marine sponge-associated fungi” (Scientific Reports, 2025).
“Also recorded” adds a separate entry of the source.

What was measured:
[1] = test system: RANKL-induced formation of MNCs from RAW264 macrophages; test: Multinucleated TRAP+ve osteoclast (MNCs) counting assay; format: cell-based, murine; settings: Mus musculus, RAW264.7, 96 h; RAW264 cells, RANKL 50 ng/mL, 4 days; read-out: IC50, inhibition of RANKL-induced formation of multinucleated osteoclasts (MNCs)
Method: EtOAc fractions of all fungal CH3OH extracts were tested for their ability to inhibit TRAP activity and the formation of multinucleated osteoclasts (MNCs) in RANKL-treated RAW264 macrophages as previously reported[7],[24]. Briefly, RAW264 cells (RIKEN Cell Bank, Tsukuba) were cultured in MEMα medium supplemented with 10% heat-inactivated fetal bovine serum and 1% penicillin/streptomycin and incubated at 37 °C in a 5% CO2 humidified atmosphere in two 96-well plates at a density of 1000 and 6000 cells/well, for TRAP assay and MNCs staining assay, respectively. Samples were then added at a concentration of 50 and 20 µg/mL for extracts, 50, 20, and 10 µM for pure compounds, and 83 µM for the standard quercetin. […]
Following a 4-day incubation period, the differentiated cells were fixed with 4% paraformaldehyde solution (Sigma–Aldrich, USA), washed with PBS, and stained using a TRAP-staining solution, which consisted of 50 mM sodium tartrate, 45 mM sodium acetate, 0.1 mg/mL naphthol AS-MX phosphate (Sigma– Aldrich, USA), and 0.6 mg/mL fast red violet LB salt (Sigma–Aldrich, USA), pH 5.2, for 1 h or longer at room temperature. TRAP-positive cells, that stained red and contained 3 or more nuclei were determined to be multinuclear osteoclasts and were quantified in each well by counting MNCs in 8 fields/well using a light microscope.

RAW264 macrophages = test: MTT cytotoxicity assay; format: cell-based, murine; settings: at the highest tested concentration
Method: After incubation of cells for one day, media was aspired and replaced with new one supplemented with treatments, whereas controls contained only DMSO. Cells were then kept at 37 °C for three days. Finally, 50 µL of 3-(4,5-dimethylthiazol-2-yl)−2,[…] bromide (MTT) solution (150 µg/mL in medium) was added after aspiration of medium, incubated under the same conditions for 3 h. Then 200 µL of DMSO were added to each well, after removal of the reaction solution, to dissolve the formed formazan salt crystals, and optical density was measured at 570 nm with a microplate reader.

SMILES | IC50 [1] | Toxic effect against RAW264 macrophages (RAW264 macrophages)
COCC(O)COc1ccc(C(C)(C)c2ccc(OCC(O)COC)cc2)cc1 (stereo not shown) [Compound 1, 2,2-bis‐[4‐(2‐hydroxy-3-methoxy-propoxy)phenyl]propane] | 57.1 µM | without cytotoxicity; also recorded: no toxic effect
COc1cc(O)c2c(c1)C1=CC(O)C(O)CC1(C)OC2=O (stereo not shown) [Compound 8, altenuene] | 38.4 µM | without cytotoxicity; also recorded: no toxic effect
